This data set is described as follows: excess molar enthalpy (molar enthalpy of mixing); xn = mol fraction of the nth substance listed. The following applies: 1273.2 K, 101 kPa, Liquid, Calvet calorimetry.

Numbers after ± are expanded uncertainties.

Consider `[Ni]` [nickel] + [Sb], for which the excess molar enthalpy (x1 = 0.2109) was -2.58 ± 0.0263 kcal/mol.
With `[Ni]` [nickel] + [Sn], under “x1 = 0.213”, the excess molar enthalpy was -2.29 ± 0.0232 kcal/mol.
Take `[Sb]` [antimony] + [Sn]: the excess molar enthalpy reads like this: (x1 = 0.2665) -0.257 ± 0.00287 kcal/mol; (x1 = 0.4886) -0.315 ± 0.00335 kcal/mol; (x1 = 0.7372) -0.233 ± 0.00263 kcal/mol.
